In patent publication US10829486B2, “Isoxazole derivatives as FXR agonists and methods of use thereof” (ENANTA PHARMACEUTICALS, INC., priority 2018, dated 2020):

Target: T1, human FXR (NR1H4) (Homo sapiens, UniProt Q96RI1)
T1 construct: host or cells: CHO (Chinese hamster ovary) reporter cells
T1 sequence (Q96RI1 1-486): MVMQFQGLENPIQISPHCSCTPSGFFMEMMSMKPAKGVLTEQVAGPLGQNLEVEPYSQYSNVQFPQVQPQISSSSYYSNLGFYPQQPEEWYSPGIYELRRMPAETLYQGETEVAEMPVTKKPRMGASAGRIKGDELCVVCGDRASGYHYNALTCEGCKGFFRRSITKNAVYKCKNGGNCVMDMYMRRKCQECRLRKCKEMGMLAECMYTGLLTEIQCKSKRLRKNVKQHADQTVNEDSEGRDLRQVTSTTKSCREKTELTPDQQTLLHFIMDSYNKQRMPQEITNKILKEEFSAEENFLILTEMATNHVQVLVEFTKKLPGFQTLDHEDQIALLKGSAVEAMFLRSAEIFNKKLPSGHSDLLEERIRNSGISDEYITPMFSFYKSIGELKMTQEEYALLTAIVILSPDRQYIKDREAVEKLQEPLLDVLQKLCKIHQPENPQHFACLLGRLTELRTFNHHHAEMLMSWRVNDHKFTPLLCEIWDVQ
Test: Human FXR (NR1H4) Assay (Gal4 promoter driven luciferase reporter assay in CHO cells)
Type: cell-based
Details: for EC50: CHO cells expressing human NR1H4, 22 hours incubation, potency ranges; for Emax: efficacy normalized to CDCA set as 100%, CHO cells expressing human NR1H4
Excerpt: Determination of a ligand mediated Gal4 promoter driven transactivati on to quantify ligand binding mediated activation of FXR. FXR Reporter Assay kit purchased from Indigo Bioscience (Catalogue number: IB00601) to determine the potency and efficacy of compound developed by Enanta that can induce FXR activation. The principle application of this reporter assay system is to quantify functional activity of human FXR. The assay utilizes non-human mammalian cells, CHO (Chinese hamster ovary) cells engineered to express human NR1H4 protein (referred to as FXR). Reporter cells also incorporate the cDNA encoding beetle luciferase which catalyzes the substrates and yields photon emission. Luminescence intensity of the reaction is quantified using a plate-reading luminometer, Envision. Reporter Cells include the luciferase reporter gene functionally linked to an FXR responsive promoter. Thus, quantifying changes in luciferase expression in the treated reporter cells provides a sensitive surrogate measure of the changes in FXR activity. EC50 and efficacy (normalize to CDCA set as 100%) is determined by XLFit. The assay is according to the manufacturer's instructions. In brief, the assay was performed in white, 96 well plates using final volume of 100 ul containing cells with different doses of compounds. Retrieve Reporter Cells from −80° C. storage. Perform a rapid thaw of the frozen cells by transferring a 10 ml volume of 37° C. cell recovery medium into the tube of frozen cells. Recap the tube of Reporter Cells and immediately place it in a 37° C. water bath for 5-10 minutes. Retrieve the tube of Reporter Cell Suspension from the water bath. Sanitize the outside surface of the tube with a 70% alcohol swab, and then transfer it into the cell culture hood. Dispense 90 μl of cell suspension into each well of the 96-well Assay Plate. Transfer the plate into 37° C. incubator, allowing the cells adherent to the bottom of the well. Dilute compounds in Dilution Plate (DP), and administrate to cells at Assay Plate (AP). DMSO content of the samples was kept at 0.2%. Cells were incubated for additional 22 hours before luciferase activities were measured. Thirty minutes before intending to quantify FXR activity, remove Detection Substrate and Detection Buffer from the refrigerator and place them in a low-light area so that they may equilibrate to room temperature. Remove the plate's lid and discard all media contents by ejecting it into an appropriate waste container. Gently tap the inverted plate onto a clean absorbent paper towel to remove residual droplets. Cells will remain tightly adhered to well bottoms. Add 100 μl of luciferase detection reagent to each well of the assay plate. Allow the assay plate to rest at room temperature for at least 5 minutes following the addition of LDR. Set the instrument (Envision) to perform a single 5 second “plate shake” prior to reading the first assay well. Read time may be 0.5 second (500 mSec) per well. EC50 and Efficacy (normalize to CDCA set as 100%) is determined by XLFit.
The efficacy was normalized to CDCA set as 100%. (A=EC50<0.1 μM; B=0.1 μM<EC50<1.0 μM; C=1.0 μM<EC50<10 μM; D=EC50>10 μM).

Row | EC50 | Emax | Compound
1 | < 100 nM | 91% | CC(C)Oc1cc(C(=O)O)cc2sc(N[C@H]3CC[C@@H](OCc4c(-c5ccccc5OC(F)(F)F)noc4C4CC4)CC3)nc12 [Example 17]
2 | 100 to 1000 nM | 111% | CC(C)Oc1cc(C(=O)NS(=O)(=O)C2CC2)cc2sc(N[C@@H]3CCC(OCc4c(-c5c(Cl)cccc5Cl)noc4C4CC4)C3)nc12 (stereo partly drawn) [Example 20]
3 | < 100 nM | 57% | CN(c1ccc2cc(C(=O)O)ccc2n1)[C@@H]1CC[C@H](OCc2c(-c3ccccc3OC(F)(F)F)noc2C2CC2)C1 [Example 7]
4 | < 100 nM | 85% | CC(C)Oc1cc(C(=O)O)cc2sc(N(C)[C@H]3CC[C@H](OCc4c(-c5c(Cl)cccc5Cl)noc4C4CC4)CC3)nc12 [Example 5]
5 | < 100 nM | 92% | CC(C)Oc1cc(C(=O)O)cc2sc(N[C@@H]3CC[C@H](OCc4c(-c5ccccc5OC(F)(F)F)noc4C4CC4)C3)nc12 [Example 11]
6 | < 100 nM | 96% | CC(C)Oc1cc(C(=O)O)cc2sc(N(C)[C@@H]3CC[C@H](OCc4c(-c5c(Cl)cccc5Cl)noc4C4CC4)C3)nc12 [Example 1]
7 | < 100 nM | 67% | CC(C)Oc1cc(C(=O)O)cc2sc(N(C)[C@@H]3CC[C@H](OCc4c(-c5ccccc5OC(F)(F)F)noc4C4CC4)C3)nc12 [Example 6]
8 | 100 to 1000 nM | 58% | CC(C)Oc1cc(C(=O)O)cc2sc(N(C)[C@H]3CC[C@H](OCc4c(-c5c(Cl)cccc5Cl)noc4C4CC4)C3)nc12 [Example 3]
9 | < 100 nM | 84% | CC(C)Oc1cc(C(=O)O)cc2sc(N[C@H]3CC[C@@H](OCc4c(-c5c(Cl)cccc5Cl)noc4C4CC4)CC3)nc12 [Example 14, 2-(((1s,4s)-4-((5-cyclopropyl-3-(2,6-dichlorophenyl)isoxazol-4-yl)methoxy)cyclohexyl)amino)-4-isopropoxybenzo[d]thiazole-6-carboxylic acid]
10 | < 100 nM | 104% | O=C(O)c1cc(F)c2nc(N[C@@H]3CC[C@H](OCc4c(-c5c(Cl)cccc5Cl)noc4C4CC4)C3)sc2c1 [Example 9]
11 | < 100 nM | 75% | CC(C)Oc1cc(C(=O)O)cc2sc(N(C)[C@H]3CC[C@@H](OCc4c(-c5c(Cl)cccc5Cl)noc4C4CC4)C3)nc12 [Example 2]
12 | < 100 nM | 99% | CC(C)Oc1cc(C(=O)O)cc2sc(N[C@@H]3CC[C@H](OCc4c(-c5c(Cl)cccc5Cl)noc4C4CC4)C3)nc12 [Example 8]
13 | < 100 nM | 65% | CC(C)Oc1cc(C(=O)O)cc2sc(N(C)[C@H]3CC[C@@H](OCc4c(-c5c(Cl)cccc5Cl)noc4C4CC4)CC3)nc12 [Example 15, 2-(((1s,4s)-4-((5-cyclopropyl-3-(2,6-dichlorophenyl)isoxazol-4-yl)methoxy)cyclohexyl)(methyl)amino)-4-isopropoxybenzo[d]thiazole-6-carboxylic acid]
14 | 100 to 1000 nM | 73% | CC(C)Oc1cc(C(=O)O)cc2sc(N(C)[C@@H]3CC[C@@H](OCc4c(-c5c(Cl)cccc5Cl)noc4C4CC4)C3)nc12 [Example 4]
15 | 100 to 1000 nM | 116% | O=C(O)c1ccc2nc(N[C@@H]3CCC(OCc4c(-c5c(Cl)cccc5Cl)noc4C4CC4)C3)sc2c1 (stereo partly drawn) [Example 19]
16 | 100 to 1000 nM | 24% | O=C(O)c1cc(F)c2nc(N[C@H]3CC[C@@H](OCc4c(-c5c(Cl)cccc5Cl)noc4C4CC4)CC3)sc2c1 [Example 16]
17 | < 100 nM | 52% | O=C(O)c1ccc2nc(N[C@H]3CC[C@@H](OCc4c(-c5c(Cl)cccc5Cl)noc4C4CC4)CC3)sc2c1 [Example 18]
18 | < 100 nM | 81% | O=C(O)c1cc(F)c2nc(N[C@@H]3CCC(OCc4c(-c5ccccc5OC(F)(F)F)noc4C4CC4)C3)sc2c1 (stereo partly drawn) [Example 10]
